Measured values: patent publication US8741911B2, “Raf inhibitor compounds” (Eli Lilly and Company, priority 2012, dated 2014)
Read-outs that look alike come from different tables or passages of the source.

Columns and labels:
NCI-H2126 = assay: CellTiter-Glo proliferation and viability assay; format: cell-based; settings: Homo sapiens
LNCaP-Clone-FGC = assay: CellTiter-Glo proliferation and viability assay; format: cell-based; settings: Homo sapiens
H9 = assay: CellTiter-Glo proliferation and viability assay; format: cell-based; settings: Homo sapiens
Colo205 cells = assay: CellTiter-Blue Colo-205 cell proliferation assay; format: cell-based; settings: Homo sapiens; Colo-205, CellTiter-Blue; read-out: Cell Proliferation Inhibition IC50
Procedure: Colo205 cells (catalog #HB-8307) are obtained from the American Type Culture Collection (ATCC, Manassas, Va.). Briefly, cells are grown in RPMI 1640 supplemented with 10% characterized fetal bovine serum (Invitrogen, Carlsbad, Calif.), 1 mM sodium pyruvate, and 1% Penicillin/Streptomycin/L-Glutamine at 37 degrees Celsius, 5% CO2, and 95% humidity. Cells are allowed to expand until reaching 30-60% confluency at which point they are subcultured or harvested for assay use. A serial dilution of test compound is dispensed into a 384-well black clear bottom plate in triplicate. One thousand two-hundred fifty cells are added per well in 50 μL complete growth medium in the 384-well plate. Plates are incubated for 67 hours at 37 degrees Celsius, 5% CO2, and 95% humidity. At the end of the incubation period, 10 μL of a 440 μM solution of resazurin (Sigma, St. Louis, Mo.) in PBS is added to each well of the plate and plates are incubated for an additional 5 hours at 37 degrees Celsius, 5% CO2, and 95% humidity. Plates are read on a Synergy2 reader (Biotek, Winooski, Vt.) using an excitation of 540 nm and an emission of 600 nm. Data is analyzed using Prism software (Graphpad, San Diego, Calif.) to calculate IC50 values.
The A375, HT-29, and Colo-205 cells (ATCC) harbor a V600E mutation.

HEL = assay: CellTiter-Glo proliferation and viability assay; format: cell-based; settings: Homo sapiens, read-out: Abs IC50
A375res cells = assay: CellTiter-Glo proliferation and viability assay in vemurafenib-resistant cells; format: cell-based, human; settings: Homo sapiens, A375res cells

## CNc1ncc2cc(-c3cc(NC(=O)NCCC(C)(C)C)c(F)cc3C)c(C)nc2n1 [Example 1, 1-(3,3-Dimethylbutyl)-3-(2-fluoro-4-methyl-5-(7-methyl-2-(methylamino)pyrido[2,3-d]pyrimidin-6-yl)phenyl)urea]
NCI-H2126; read-out: Abs IC50
  IC50: > 0.02 µM
NCI-H2126; read-out: Rel IC50
  IC50: > 0.02 µM
LNCaP-Clone-FGC; read-out: Abs IC50
  IC50: > 0.02 µM
LNCaP-Clone-FGC; read-out: Rel IC50
  IC50: 0.00274 µM
H9; read-out: Abs IC50
  IC50: 0.00033 µM
H9; read-out: Rel IC50
  IC50: 0.00019 µM
Colo205 cells
  IC50: 0.027 µM
HEL
  IC50: > 0.02 µM
A375res cells
  IC50: 0.034 µM
